Read-outs that look alike come from different tables or passages of the source. Numbered stars: 1 amine (or outer) side, 2 acyl side, 3 side chain; on linkers, the order of the positions; unused ones are H or OH. Bridge positions count the residues as written; N and C are the ends. Square brackets hold non-standard residues; d marks the D form. Peptide text beside a SMILES is read from it. * marks the point of attachment. C20 diacid = O=C(O)CCCCCCCCCCCCCCCCCCC(=O)*; γGlu = O=C(O)[C@H](CCC(=O)[*:2])N[*:1]; NMeI = CC[C@H](C)[C@H](NC)C(=O)O; Sar = CNCC(=O)O
Assays:
[1] = biological target: T1, human amylin receptor 3 (hAMYR3) consisting of hCTR2 co-expressed with human Receptor Activity Modifying Protein 3 (hRAMP3) (Homo sapiens, UniProt O60896+P30988); experiment: hAMYR3 assay: induction of cAMP (AlphaScreen cAMP Assay kit) in COS7 cells expressing hAMYR3; format: cell-based
T1 construct: expressed in transfected cells
T1 sequence (P30988 25-474): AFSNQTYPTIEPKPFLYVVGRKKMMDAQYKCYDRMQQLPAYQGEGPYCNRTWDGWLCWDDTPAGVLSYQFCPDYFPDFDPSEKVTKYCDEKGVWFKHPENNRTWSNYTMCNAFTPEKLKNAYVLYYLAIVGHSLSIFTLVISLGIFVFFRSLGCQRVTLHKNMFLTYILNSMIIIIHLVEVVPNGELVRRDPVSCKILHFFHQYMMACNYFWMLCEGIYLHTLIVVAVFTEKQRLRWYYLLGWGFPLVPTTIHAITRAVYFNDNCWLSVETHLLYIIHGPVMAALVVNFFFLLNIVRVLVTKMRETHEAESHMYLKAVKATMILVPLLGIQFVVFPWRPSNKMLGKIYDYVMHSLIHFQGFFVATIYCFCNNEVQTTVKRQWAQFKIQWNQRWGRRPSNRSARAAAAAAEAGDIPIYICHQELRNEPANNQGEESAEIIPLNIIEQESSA
T1 sequence (O60896 24-148 partner): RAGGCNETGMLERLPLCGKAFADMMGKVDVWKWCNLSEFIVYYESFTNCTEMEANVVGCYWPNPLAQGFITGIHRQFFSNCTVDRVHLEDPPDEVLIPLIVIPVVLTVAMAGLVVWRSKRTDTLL
Excerpt: The cell line COS7, originating from African Green Monkey kidney fibroblast cells, was used for establishment of the stable cell lines described below. The COS7 cellular background was used due to it being RAMP naive, and as such it provides the best available system for testing of the monomeric hCTR and different heterodimeric amylin receptor subtypes functionally generated by introduction of the individual RAMPs.
A cell line expressing the human amylin receptor 3 (hAMYR3) was generated in the COS7 cellular background as stable clones. In brief, hCTR2 (GI:4502547) and hRAMP3 (GI:118572586) were amplified by PCR using primers encoding terminal restriction sites for subcloning. The 5'-end primers additionally encoded a near Kozak consensus sequence to ensure efficient translation. The fidelity of the DNA encoding the receptor was confirmed by DNA sequencing. The PCR products encoding the receptor were subcloned into a proprietary tri-cistronic mammalian expression vector with RAMP3, hCTR2 and neomycin (G418) resistance marker. The mammalian expression vector encoding the receptor was transfected into COS7 cells by a standard liposome transfection method. 48 hours post-transfection, cells were seeded for limited dilution cloning and selected with 1 mg/ml G418 in the culture medium. After 3 weeks, surviving colonies of hAMY3R-expressing cells were picked, propagated and tested in the amylin efficacy assay as described in Example 3 below. The functional generation of the amylin receptor phenotype was verified in the efficacy assay by a left-shifted efficacy response to amylin relative to monomeric calcitonin receptor, and one hAMYR3-expressing clone was chosen for compound profiling.
In vitro activity of test peptides at the hCTR2 and hAMYR3 receptors was assessed by measuring the induction of cAMP following stimulation of the receptor by pramlintide or peptides of the invention using the AlphaScreen® cAMP Assay kit from Perkin-Elmer.
Briefly, COS7 cells expressing hCTR2 (see Example 2, above) were seeded at 30-40,000 cells per well in 96-well microtiter plates coated with 0.01 % poly-L-lysine, and grown for 1 day in culture in 100 µl growth medium [DMEM, 10% FCS, Penicillin (100 IU/ml), Streptomycin (100 µg/ml)]. On the day of analysis, growth medium was removed and the cells were washed once with 200 µl Tyrode buffer [Tyrode's Salts (9.6 g/l), 10 mM HEPES, pH 7.4]. Cells were incubated in 100 µl Tyrode buffer containing increasing concentrations of test peptides, 100 µM IBMX and 0.1% casein for 15 min at 37° C. The reaction was stopped by carefully decanting off the compound/buffer medium and replacing it with lysis/detection buffer (80 µl 0.1 % w/v BSA, 5 mM HEPES, 0.3 % v/v Tween-20 in deionized water). After incubation at room temperature for 10 min., the cAMP content of the resulting cell lysate was estimated according to the AlphaScreen® cAMP Assay manufacturer's instructions. EC50 values and relative efficacy values (in %) compared to reference peptide (Pramlintide) were estimated by computer-aided curve fitting using the 4-parameter logistic (4PL) non-linear model.
The in vitro activity results (expressed as EC50 values) for peptides of the invention and for Pramlintide (reference peptide) are summarized in Table 2, below.

[2] = biological target: T2, human calcitonin receptor (hCTR2) (Homo sapiens, UniProt P30988); experiment: hCTR2 assay: induction of cAMP (AlphaScreen cAMP Assay kit) in COS7 cells expressing hCTR2; format: cell-based
T2 construct: expressed in transfected cells
T2 sequence (P30988 25-474): T1 sequence (P30988 25-474)
How it was run: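 Cells were seeded one day ahead, washed, then exposed to rising peptide concentrations for 15 min at 37° C in the presence of 100 µM IBMX. After lysis for 10 min at room temperature, cAMP was quantified by AlphaScreen and EC50 values derived by 4PL fitting.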

[3] = cAMP induction in COS7 cells expressing hCTR2, average of a minimum of 3 determinations, read-out: hCTR2 EC50

Row | Compound | EC50 [1] | EC50 [2, 3] | EC50 [2] | EC50 ([1]; cAMP induction in COS7 cells expressing hAMYR3, average of a minimum of 3 determinations, read-out: hAMY R3 EC50)
1 | CC[C@H](C)[C@@H](C(=O)N[C@@H](CC(C)C)C(=O)N[C@@H](CO)C(=O)N[C@@H](CO)C(=O)N[C@H](C(=O)N[C@@H](CCC(=O)O)C(=O)N[C@H](C(=O)NCC(=O)N[C@@H](CO)C(=O)N[C@@H](CCC(=O)O)C(=O)N[C@H](C(=O)N1CCC[C@H]1C(N)=O)[C@@H](C)O)C(C)C)[C@@H](C)O)N(C)C(=O)[C@H](C)NC(=O)CN(C)C(=O)[C@H](Cc1ccccc1)NC(=O)[C@H](CO)NC(=O)[C@H](CO)NC(=O)[C@H](CO)NC(=O)[C@H](CO)NC(=O)[C@H](CCCNC(=N)N)NC(=O)[C@H](Cc1c[nH]cn1)NC(=O)[C@H](CC(C)C)NC(=O)[C@H](Cc1ccccc1)NC(=O)[C@H](CCC(=O)O)NC(=O)[C@H](C)NC(=O)[C@H](CC(C)C)NC(=O)[C@H](CCCNC(=N)N)NC(=O)[C@H](CO)NC(=O)[C@@H](NC(=O)[C@H](C)NC(=O)[C@@H]1CSSC[C@H](NC(=O)[C@H](CCCNC(=N)N)NC(=O)CC[C@H](NC(=O)CCCCCCCCCCCCCCCCCCC(=O)O)C(=O)O)C(=O)N2CCC[C@H]2C(=O)N[C@@H]([C@@H](C)O)C(=O)N[C@@H](C)C(=O)N[C@@H]([C@@H](C)O)C(=O)N1)[C@@H](C)O [Compound 140, [19CD]-isoGlu-RC()PTATC()ATSRLAEFLHRSSSSF-Gly(Me)-A-Ile(Me)-LSSTEVGSETP-NH2] ({C20 diacid-γGlu}-RCPTATCATSRLAEFLHRSSSSF[Sar]A[NMeI]LSSTEVGSETP-NH2; disulfide 2-7) | 0.18 nM | 0.098 nM | – | –
2 | CC[C@H](C)[C@@H](C(=O)N[C@@H](CC(C)C)C(=O)N[C@@H](CO)C(=O)N[C@@H](CO)C(=O)N[C@H](C(=O)N[C@@H](CC(N)=O)C(=O)N[C@H](C(=O)NCC(=O)N[C@@H](CO)C(=O)N[C@@H](CC(N)=O)C(=O)N[C@H](C(=O)N[C@@H](CO)C(N)=O)[C@@H](C)O)C(C)C)[C@@H](C)O)N(C)C(=O)[C@H](C)NC(=O)CN(C)C(=O)[C@H](Cc1ccccc1)NC(=O)[C@H](CC(N)=O)NC(=O)[C@H](CC(N)=O)NC(=O)[C@H](CO)NC(=O)[C@H](CO)NC(=O)[C@H](CCCNC(=N)N)NC(=O)[C@H](Cc1c[nH]cn1)NC(=O)[C@H](CC(C)C)NC(=O)[C@H](Cc1ccccc1)NC(=O)[C@H](CCC(=O)O)NC(=O)[C@H](C)NC(=O)[C@H](CC(C)C)NC(=O)[C@H](CCCNC(=N)N)NC(=O)[C@H](CCC(N)=O)NC(=O)[C@@H](NC(=O)[C@H](C)NC(=O)[C@@H]1CSSC[C@H](NC(=O)[C@H](CCCNC(=N)N)NC(=O)CC[C@H](NC(=O)CCCCCCCCCCCCCCCCCCC(=O)O)C(=O)O)C(=O)N[C@@H](CC(N)=O)C(=O)N[C@@H]([C@@H](C)O)C(=O)N[C@@H](C)C(=O)N[C@@H]([C@@H](C)O)C(=O)N1)[C@@H](C)O [Compound 116, [19CD]-isoGlu-RC()NTATC()ATQRLAEFLHRSSNNF-Gly(Me)-A-Ile(Me)-LSSTNVGSNTS-NH2] ({C20 diacid-γGlu}-RCNTATCATQRLAEFLHRSSNNF[Sar]A[NMeI]LSSTNVGSNTS-NH2; disulfide 2-7) | 1.6 nM | – | 0.93 nM | –
3 | CC[C@H](C)[C@@H](C(=O)N[C@@H](CC(C)C)C(=O)N[C@@H](CO)C(=O)N[C@@H](CO)C(=O)N[C@H](C(=O)N[C@@H](CCC(=O)O)C(=O)N[C@H](C(=O)NCC(=O)N[C@@H](CO)C(=O)N[C@@H](CCC(=O)O)C(=O)N[C@H](C(=O)N1CCC[C@H]1C(N)=O)[C@@H](C)O)C(C)C)[C@@H](C)O)N(C)C(=O)[C@H](C)NC(=O)CN(C)C(=O)[C@H](Cc1ccccc1)NC(=O)[C@H](CO)NC(=O)[C@H](CO)NC(=O)[C@H](CO)NC(=O)[C@H](CO)NC(=O)[C@H](CCCNC(=N)N)NC(=O)[C@H](Cc1c[nH]cn1)NC(=O)[C@H](CC(C)C)NC(=O)[C@H](Cc1ccccc1)NC(=O)[C@H](CCC(=O)O)NC(=O)[C@H](C)NC(=O)[C@H](CC(C)C)NC(=O)[C@H](CCCNC(=N)N)NC(=O)[C@H](CCC(N)=O)NC(=O)[C@@H](NC(=O)[C@H](C)NC(=O)[C@@H]1CSSC[C@H](NC(=O)[C@H](CCCNC(=N)N)NC(=O)CC[C@H](NC(=O)CCCCCCCCCCCCCCCCCCC(=O)O)C(=O)O)C(=O)N[C@@H](CCC(=O)O)C(=O)N[C@@H]([C@@H](C)O)C(=O)N[C@@H](C)C(=O)N[C@@H]([C@@H](C)O)C(=O)N1)[C@@H](C)O [Compound 128, [19CD]-isoGlu-RC()ETATC()ATQRLAEFLHRSSSSF-Gly(Me)-A-Ile(Me)-LSSTEVGSETP-NH2] ({C20 diacid-γGlu}-RCETATCATQRLAEFLHRSSSSF[Sar]A[NMeI]LSSTEVGSETP-NH2; disulfide 2-7) | – | 0.28 nM | – | 0.45 nM
4 | CC[C@H](C)[C@@H](C(=O)N[C@@H](CC(C)C)C(=O)N[C@@H](CO)C(=O)N[C@@H](CO)C(=O)N[C@H](C(=O)N[C@@H](CC(N)=O)C(=O)N[C@H](C(=O)NCC(=O)N[C@@H](CO)C(=O)N[C@@H](CC(N)=O)C(=O)N[C@H](C(=O)N[C@H](C(N)=O)[C@@H](C)O)[C@@H](C)O)C(C)C)[C@@H](C)O)N(C)C(=O)[C@H](C)NC(=O)CN(C)C(=O)[C@H](Cc1ccccc1)NC(=O)[C@H](CC(N)=O)NC(=O)[C@H](CC(N)=O)NC(=O)[C@H](CO)NC(=O)[C@H](CO)NC(=O)[C@H](CCCNC(=N)N)NC(=O)[C@H](Cc1c[nH]cn1)NC(=O)[C@H](CC(C)C)NC(=O)[C@H](Cc1ccccc1)NC(=O)[C@H](CCC(=O)O)NC(=O)[C@H](C)NC(=O)[C@H](CC(C)C)NC(=O)[C@H](CCCNC(=N)N)NC(=O)[C@H](CCC(N)=O)NC(=O)[C@@H](NC(=O)[C@H](C)NC(=O)[C@@H]1CSSC[C@H](NC(=O)[C@H](CCCNC(=N)N)NC(=O)CC[C@H](NC(=O)CCCCCCCCCCCCCCCCCCC(=O)O)C(=O)O)C(=O)N[C@@H](CC(N)=O)C(=O)N[C@@H]([C@@H](C)O)C(=O)N[C@@H](C)C(=O)N[C@@H]([C@@H](C)O)C(=O)N1)[C@@H](C)O [Compound 117, [19CD]-isoGlu-RC()NTATC()ATQRLAEFLHRSSNNF-Gly(Me)-A-Ile(Me)-LSSTNVGSNTT-NH2] ({C20 diacid-γGlu}-RCNTATCATQRLAEFLHRSSNNF[Sar]A[NMeI]LSSTNVGSNTT-NH2; disulfide 2-7) | 8.2 nM | – | 0.47 nM | –

From EP3046573B1, “AMYLIN ANALOGUES” (Zealand Pharma A/S, priority 2013, dated 2015)
